Here are results for one compound from patent US6868215B2, “Dye thin film, production method thereof, optical switch, optical distributor, optical modulator and optical switch array” (Fuji Xerox Co., Ltd., priority 2002, dated 2005).

A short description of the data set: thermal stability: thermal decomposition temperature by thermogravimetry and differential thermal analysis. Format: physicochemical. On the procedure: For the absorption characteristic, absorption spectra were measured by using a near infrared photospectrometer. Further, for the thermal stability, the thermal decomposition temperature was measured by thermogravimetry and differential thermal analysis. Further, the solubility in organic solvents such as chloroform or acetone was confirmed.

As to `CC(C)CN(CC(C)C)c1cc(O)c2c(c1)OC(=O)/C2=C(/[O-])C1=C2C(O)=CC(=[N+](CC(C)C)CC(C)C)C=C2OC1=O` [compound (1)], the decomposition temperature came out at 202.7 °C.
